According to PubChem BioAssay AID1745844 (Carcinogenic Potency Database (CPDB), 2022):
Active and inactive are the calls of the source. The rule behind the calls is not given here.

Tested on: rodent lifetime carcinogenesis bioassay, tumor incidence TD50
Assay: carcinogenic potency in animals, long-term in vivo studies, CPDB compilation (AID 1745844)

With `Nc1ccc(N)c(Cl)c1` the TD50 (mouse, strain B6C3F1, females, in feed, site: any site (literature study), lesion: several types, types named in the paper, dosed 96 weeks, study length 104 weeks) was 1430 mg/kg/day (inactive), the TD50 (mouse, strain B6C3F1, females, in feed, site: liver, lesion: hepatocellular adenoma + hepatocellular carcinoma + neoplastic nodule, dosed 96 weeks, study length 104 weeks) was 1590 mg/kg/day and the TD50 (mouse, strain B6C3F1, females, in feed, site: lung, lesion: alveolar/bronchiolar adenoma + alveolar/bronchiolar carcinoma, dosed 96 weeks, study length 104 weeks) was 3330 mg/kg/day. For the same compound, the TD50 (mouse, strain B6C3F1, males, in feed, site: any site (literature study), lesion: several types, types named in the paper, dosed 95 weeks, study length 104 weeks) was 4380 mg/kg/day (inactive), the TD50 (mouse, strain B6C3F1, males, in feed, site: liver, lesion: hepatocellular adenoma + hepatocellular carcinoma + neoplastic nodule, dosed 95 weeks, study length 104 weeks) was 1310 mg/kg/day and the carcinogen call (rat, strain Fischer 344, females, in feed, site: any site (literature study), lesion: several types, types named in the paper, dosed 105 weeks, study length 105 weeks) was “negative (inactive)”. For the same compound, the TD50 (rat, strain Fischer 344, females, in feed, site: liver, lesion: hepatocellular adenoma + hepatocellular carcinoma + neoplastic nodule, dosed 105 weeks, study length 105 weeks) was 3600 mg/kg/day, the TD50 (rat, strain Fischer 344, males, in feed, site: any site (literature study), lesion: several types, types named in the paper, dosed 105 weeks, study length 105 weeks) was 244 mg/kg/day (inactive) and the TD50 (rat, strain Fischer 344, males, in feed, site: liver, lesion: hepatocellular adenoma + hepatocellular carcinoma + neoplastic nodule, dosed 105 weeks, study length 105 weeks) was 665 mg/kg/day.
In the case of `[Cl][Hg]`, the carcinogen call (mouse, strain BALB/c, males, in feed, site: liver, lesion: one or several types, types not named, dosed 60 weeks, study length 104 weeks) is reported as “negative (inactive)” and the carcinogen call (mouse, strain BALB/c, males, in feed, site: lung, lesion: one or several types, types not named, dosed 60 weeks, study length 104 weeks) is reported as “negative (inactive)”.
`c1ccc2n[nH]nc2c1` gave a TD50 (mouse, strain B6C3F1, females, in feed, site: any site (literature study), lesion: several types, types named in the paper, dosed 104 weeks, study length 106 weeks) of 18900 mg/kg/day, a TD50 (mouse, strain B6C3F1, females, in feed, site: lung, lesion: alveolar/bronchiolar adenoma + alveolar/bronchiolar carcinoma, dosed 104 weeks, study length 106 weeks) of 3890 mg/kg/day and a TD50 (mouse, strain B6C3F1, females, in feed, site: lung, lesion: alveolar/bronchiolar carcinoma, dosed 104 weeks, study length 106 weeks) of 4390 mg/kg/day. The carcinogen call (mouse, strain B6C3F1, males, in feed, site: any site (literature study), lesion: several types, types named in the paper, dosed 104 weeks, study length 106 weeks) was “negative (inactive)”, the TD50 (rat, strain Fischer 344, females, in feed, site: brain, lesion: glioma, NOS, dosed 78 weeks, study length 105 weeks) was 20300 mg/kg/day and the TD50 (rat, strain Fischer 344, females, in feed, site: liver, lesion: hepatocellular adenoma + hepatocellular carcinoma + neoplastic nodule, dosed 78 weeks, study length 105 weeks) was 10100 mg/kg/day. For the same compound, the carcinogen call (rat, strain Fischer 344, males, in feed, site: brain, lesion: glioma, NOS + oligodendroglioma, dosed 78 weeks, study length 104 weeks) was “a”, the TD50 (rat, strain Fischer 344, males, in feed, site: liver, lesion: hepatocellular adenoma + hepatocellular carcinoma + neoplastic nodule, dosed 78 weeks, study length 104 weeks) was 2720 mg/kg/day and the TD50 (rat, strain Fischer 344, males, in feed, site: liver, lesion: neoplastic nodule, dosed 78 weeks, study length 104 weeks) was 2720 mg/kg/day.
In the case of `Cn1cc(C(=O)[C@@H]2CCc3nc[nH]c3C2)c2ccccc21`, the carcinogen call (mouse, strain B6C3F1, females, by gavage, site: liver, lesion: hepatocellular adenoma, dosed 104 weeks, study length 104 weeks) is reported as “negative (inactive)”, the TD50 (mouse, strain B6C3F1, females, by gavage, site: liver, lesion: hepatocellular carcinoma, dosed 104 weeks, study length 104 weeks) is reported as 1040 mg/kg/day (inactive) and the carcinogen call (mouse, strain B6C3F1, females, by gavage, site: lung, lesion: adenoma, dosed 104 weeks, study length 104 weeks) is reported as “negative (inactive)”. For the same compound, the carcinogen call (mouse, strain B6C3F1, females, by gavage, site: lung, lesion: carcinoma, dosed 104 weeks, study length 104 weeks) was “negative (inactive)”, the carcinogen call (mouse, strain B6C3F1, males, by gavage, site: liver, lesion: hepatocellular adenoma, dosed 104 weeks, study length 104 weeks) was “negative (inactive)” and the carcinogen call (mouse, strain B6C3F1, males, by gavage, site: liver, lesion: hepatocellular carcinoma, dosed 104 weeks, study length 104 weeks) was “negative (inactive)”. The carcinogen call (mouse, strain B6C3F1, males, by gavage, site: lung, lesion: adenoma, dosed 104 weeks, study length 104 weeks) was “negative (inactive)”, the carcinogen call (mouse, strain B6C3F1, males, by gavage, site: lung, lesion: carcinoma, dosed 104 weeks, study length 104 weeks) was “negative (inactive)” and the carcinogen call (rat, strain Fischer 344, females, by gavage, site: liver, lesion: hepatocellular adenoma, dosed 104 weeks, study length 104 weeks) was “negative (inactive)”. For the same compound, the carcinogen call (rat, strain Fischer 344, males, by gavage, site: liver, lesion: hepatocellular adenoma, dosed 104 weeks, study length 104 weeks) was “negative (inactive)”.
For `CCN(CC)c1ccc2c(-c3ccc(S(=O)(=O)O)cc3S(=O)(=O)[O-])c3ccc(=[N+](CC)CC)cc-3oc2c1`, the TD50 (rat, strain F344/DuCrj, females, in feed, site: any site (literature study), lesion: several types, types named in the paper, dosed 106 weeks, study length 106 weeks) was 4100 mg/kg/day (inactive), the carcinogen call (rat, strain F344/DuCrj, females, in feed, site: liver, lesion: one or several types, types not named, dosed 106 weeks, study length 106 weeks) was “negative (inactive)” and the TD50 (rat, strain F344/DuCrj, males, in feed, site: any site (literature study), lesion: several types, types named in the paper, dosed 106 weeks, study length 106 weeks) was 2350 mg/kg/day (inactive). The carcinogen call (rat, strain F344/DuCrj, males, in feed, site: liver, lesion: neoplastic nodule, dosed 106 weeks, study length 106 weeks) was “negative (inactive)”.
With `CNCCc1ccc(OC(=O)C(C)C)c(OC(=O)C(C)C)c1` the carcinogen call (rat, strain Charles River CD (Sprague-Dawley), females, by gavage, site: adrenal gland, lesion: cortical adenoma, dosed 104 weeks, study length 104 weeks) was “negative (inactive)”, the carcinogen call (rat, strain Charles River CD (Sprague-Dawley), females, by gavage, site: adrenal gland, lesion: pheochromocytoma, malignant, dosed 104 weeks, study length 104 weeks) was “negative (inactive)” and the carcinogen call (rat, strain Charles River CD (Sprague-Dawley), females, by gavage, site: mammary gland, lesion: adenocarcinoma, dosed 104 weeks, study length 104 weeks) was “negative (inactive)”. The carcinogen call (rat, strain Charles River CD (Sprague-Dawley), females, by gavage, site: mammary gland, lesion: adenoma, dosed 104 weeks, study length 104 weeks) was “negative (inactive)”, the carcinogen call (rat, strain Charles River CD (Sprague-Dawley), females, by gavage, site: pituitary gland, lesion: adenoma, dosed 104 weeks, study length 104 weeks) was “negative (inactive)” and the carcinogen call (rat, strain Charles River CD (Sprague-Dawley), males, by gavage, site: adrenal gland, lesion: cortical adenoma, dosed 104 weeks, study length 104 weeks) was “negative (inactive)”. For the same compound, the carcinogen call (rat, strain Charles River CD (Sprague-Dawley), males, by gavage, site: adrenal gland, lesion: pheochromocytoma, malignant, dosed 104 weeks, study length 104 weeks) was “negative (inactive)” and the TD50 (rat, strain Charles River CD (Sprague-Dawley), males, by gavage, site: pituitary gland, lesion: adenoma, dosed 104 weeks, study length 104 weeks) was 30.2 mg/kg/day (inactive).
For `CC1=C(C)C(=O)C(C(CCCCCC(=O)O)c2ccccc2)=C(C)C1=O` (configuration not stated), the carcinogen call (rat, strain Fischer 344/Jcl, females, in feed, site: liver, lesion: one or several types, types not named, dosed 52 weeks, study length 52 weeks) was “negative (inactive)” and the carcinogen call (rat, strain Fischer 344/Jcl, males, in feed, site: liver, lesion: one or several types, types not named, dosed 52 weeks, study length 52 weeks) was “negative (inactive)”.
`C[C@H]1CCCC(=O)CCC/C=C/c2cc(O)cc(O)c2C(=O)O1` was tested, and the TD50 (mouse, strain B6C3F1, females, in feed, site: any site (literature study), lesion: several types, types named in the paper, dosed 104 weeks, study length 105 weeks) was 17.9 mg/kg/day, the TD50 (mouse, strain B6C3F1, females, in feed, site: liver + pituitary gland, lesion: hepatocellular adenoma + hepatocellular carcinoma + adenoma, NOS + carcinoma, dosed 104 weeks, study length 105 weeks) was 22 mg/kg/day and the TD50 (mouse, strain B6C3F1, females, in feed, site: liver, lesion: hepatocellular adenoma + hepatocellular carcinoma + neoplastic nodule, dosed 104 weeks, study length 105 weeks) was 38.8 mg/kg/day. For the same compound, the TD50 (mouse, strain B6C3F1, females, in feed, site: liver, lesion: hepatocellular adenoma + hepatocellular carcinoma, dosed 104 weeks, study length 105 weeks) was 38.8 mg/kg/day, the TD50 (mouse, strain B6C3F1, females, in feed, site: liver, lesion: hepatocellular adenoma, dosed 104 weeks, study length 105 weeks) was 50.1 mg/kg/day and the TD50 (mouse, strain B6C3F1, females, in feed, site: pituitary gland, lesion: adenoma, NOS + carcinoma, dosed 104 weeks, study length 105 weeks) was 32.3 mg/kg/day. The TD50 (mouse, strain B6C3F1, females, in feed, site: pituitary gland, lesion: adenoma, NOS, dosed 104 weeks, study length 105 weeks) was 37.4 mg/kg/day, the TD50 (mouse, strain B6C3F1, males, in feed, site: pituitary gland, lesion: adenoma + carcinoma, dosed 104 weeks, study length 105 weeks) was 49.1 mg/kg/day and the TD50 (mouse, strain B6C3F1, males, in feed, site: pituitary gland, lesion: adenoma, dosed 104 weeks, study length 105 weeks) was 53.3 mg/kg/day. For the same compound, the TD50 (rat, strain Fischer 344, females, in feed, site: any site (literature study), lesion: several types, types named in the paper, dosed 104 weeks, study length 104 weeks) was 80.9 mg/kg/day (inactive), the TD50 (rat, strain Fischer 344, females, in feed, site: liver, lesion: hepatocellular adenoma + hepatocellular carcinoma + neoplastic nodule, dosed 104 weeks, study length 104 weeks) was 33.5 mg/kg/day and the TD50 (rat, strain Fischer 344, males, in feed, site: any site (literature study), lesion: several types, types named in the paper, dosed 104 weeks, study length 104 weeks) was 16.2 mg/kg/day (inactive). For the same compound, the TD50 (rat, strain Fischer 344, males, in feed, site: liver, lesion: hepatocellular adenoma + hepatocellular carcinoma + neoplastic nodule, dosed 104 weeks, study length 104 weeks) was 950 mg/kg/day.
`CCN(CC)C(=O)Nc1ccc(OCC(O)CNC(C)(C)C)c(C(C)=O)c1` (configuration not stated) was tested, and the TD50 (mouse, strain Charles River CD1, females, in feed, site: lung, lesion: several types, types named in the paper, dosed 104 weeks, study length 104 weeks) was 8020 mg/kg/day (inactive), the TD50 (mouse, strain Charles River CD1, males, in feed, site: lung, lesion: several types, types named in the paper, dosed 104 weeks, study length 104 weeks) was 4710 mg/kg/day (inactive) and the TD50 (rat, strain Sprague-Dawley, females, in feed, site: any site (literature study), lesion: several types, types named in the paper, dosed 104 weeks, study length 104 weeks) was 2480 mg/kg/day (inactive). For the same compound, the TD50 (rat, strain Sprague-Dawley, females, in feed, site: liver, lesion: hepatocellular adenoma, dosed 104 weeks, study length 104 weeks) was 38100 mg/kg/day (inactive), the TD50 (rat, strain Sprague-Dawley, females, in feed, site: liver, lesion: hepatocellular carcinoma, dosed 104 weeks, study length 104 weeks) was 38100 mg/kg/day (inactive) and the TD50 (rat, strain Sprague-Dawley, males, in feed, site: any site (literature study), lesion: several types, types named in the paper, dosed 104 weeks, study length 104 weeks) was 684 mg/kg/day (inactive). The TD50 (rat, strain Sprague-Dawley, males, in feed, site: liver, lesion: hepatocellular adenoma, dosed 104 weeks, study length 104 weeks) was 12400 mg/kg/day (inactive) and the carcinogen call (rat, strain Sprague-Dawley, males, in feed, site: liver, lesion: hepatocellular carcinoma, dosed 104 weeks, study length 104 weeks) was “negative (inactive)”.
With `CC(=O)OC(OC(C)=O)c1ccc([N+](=O)[O-])o1` the carcinogen call (rat, strain Holtzman albino (Sprague-Dawley derived), females, in feed, site: mammary tissue, wider than the gland, lesion: one or several types, types not named, dosed 36 weeks, study length 54 weeks) was “negative (inactive)” and the TD50 (rat, strain Holtzman albino (Sprague-Dawley derived), females, in feed, site: mammary tissue, wider than the gland, lesion: one or several types, types not named, dosed 44 weeks, study length 60 weeks) was 105 mg/kg/day (inactive).
